Laboratory results as given in patent publication US20250295646A1, “METHODS OF USE OF T-TYPE CALCIUM CHANNEL MODULATORS” (Praxis Precision Medicines, Inc., priority 2022, published 2025).

Test system: adult patients with essential tremor
Test: Essential tremor trial Example 16 Part B randomized withdrawal phase: TETRAS, mADL, ADL efficacy
Type: in vivo, human
Design: TETRAS mADL Mean CFB (SD): unit not given here
Conditions: for TETRAS ADL LS Mean CFB / TETRAS CULS LS Mean CFB / TETRAS PS Item 6: Archimedes Spiral (Left) LS Mean CFB / TETRAS PS Item 6: Archimedes Spiral (Right) LS Mean CFB / TETRAS PS Item 7: Handwriting LS Mean CFB / TETRAS PSTS LS Mean CFB / TETRAS ULS LS Mean CFB / TETRAS mADL LS Mean CFB: change from randomization baseline; for TETRAS ADL Mean CFB (SD) / TETRAS CULS CTA (%) / TETRAS PS Item 6: Archimedes Spiral (Left) CTA (%) / TETRAS PS Item 6: Archimedes Spiral (Right) CTA (%) / TETRAS PS Item 7: Handwriting CTA (%) / TETRAS PSTS CTA (%) / TETRAS ULS CTA (%) / TETRAS mADL Mean CFB (SD): from randomization baseline
Experimental: A two part trial (Part A and Part B as described below) was conducted to study the efficacy, safety, tolerability, and pharmacokinetics of the compound of formula (I) in adult patients with essential tremor (ET).
Participants were males and females ages 18 and older with a clinical diagnosis of ET. Participants who have a history of any other medical, neurological, or psychiatric condition that may explain or cause tremor were excluded. Participants who have previously received treatment with formula (I) in any clinical trial (including Part A of the current trial for participants enrolling in Part B) were also excluded.
In Part B, an open label titration phase and a randomized, double-blind, placebo-controlled trial was conducted.

[1] = Formula (I) group, Day 70 follow-up
[2] = Part B - RWD, RWAS, Formula (I) group, Day 56
[3] = Part B - RWD, RWAS, Formula (I) group, Day 70
[4] = Part B - RWD, RWAS, Formula (I) group, Randomization Baseline (Day 42 post-dose value)
[5] = Part B RWD, Formula (I) group, Day 56

CC(C)(C)NC(=O)CN1CCC(CNC(=O)c2cc(F)cc(Cl)c2)CC1 [compound of formula (I), N-((1-(2-(tert-butylamino)-2-oxoethyl)piperidin-4-yl)methyl)-3-chloro-5-fluorobenzamide]
TETRAS ADL score, LS mean change from randomization baseline (Day 42) [1]: 3.267
TETRAS combined upper limb score, LS mean change from randomization baseline (Day 42) [1]: 3.156
increase in combined upper limb tremor amplitude [1]: 28.1%
increase in upper limb tremor amplitude [1]: 27.2%
mADL score, LS mean change from randomization baseline (Day 42) [1]: 4.353
TETRAS upper limb score, LS mean change from randomization baseline (Day 42) (Formula (I) group, Day 70 follow-up (2 weeks after cessation)): 1.653
TETRAS ADL LS Mean Difference: Formula (I) - Placebo (95% CI) (Part B - RWD, RWAS, Day 56): −9.578 (−18.9020, −0.2546)
TETRAS CULS LS Mean Difference: Formula (I) - Placebo (95% CI) (Part B - RWD, RWAS, Day 56): −1.896 (−8.7365, 4.9451)
TETRAS PSTS LS Mean Difference: Formula (I) - Placebo (95% CI) (Part B - RWD, RWAS, Day 56): −3.025 (−11.2090, 5.1595)
TETRAS ULS LS Mean Difference: Formula (I) - Placebo (95% CI) (Part B - RWD, RWAS, Day 56): −0.253 (−4.9188, 4.4129)
TETRAS mADL LS Mean Difference: Formula (I) - Placebo (95% CI) (Part B - RWD, RWAS, Day 56): −8.439 (−15.3856, −1.4916)
TETRAS ADL LS Mean Difference: Formula (I) - Placebo (95% CI) (Part B - RWD, RWAS, Day 70): −5.988 (−16.8132, 4.8377)
TETRAS CULS LS Mean Difference: Formula (I) - Placebo (95% CI) (Part B - RWD, RWAS, Day 70): −0.964 (−6.5938, 4.6660)
TETRAS PSTS LS Mean Difference: Formula (I) - Placebo (95% CI) (Part B - RWD, RWAS, Day 70): −1.277 (−7.5286, 4.9741)
TETRAS ULS LS Mean Difference: Formula (I) - Placebo (95% CI) (Part B - RWD, RWAS, Day 70): −0.316 (−3.3765, 2.7441)
TETRAS mADL LS Mean Difference: Formula (I) - Placebo (95% CI) (Part B - RWD, RWAS, Day 70): −3.236 (−12.3264, 5.8538)
TETRAS ADL LS Mean CFB [2]: 0.877
TETRAS CULS LS Mean CFB [2]: 1.525
TETRAS PS Item 6: Archimedes Spiral (Left) LS Mean CFB [2]: 0.394
TETRAS PS Item 6: Archimedes Spiral (Right) LS Mean CFB [2]: 0.087
TETRAS PS Item 7: Handwriting LS Mean CFB [2]: 0.037
TETRAS PSTS LS Mean CFB [2]: 1.174
TETRAS ULS LS Mean CFB [2]: 0.716
TETRAS mADL LS Mean CFB [2]: 1.350
TETRAS ADL Mean CFB (SD) [2]: 5.84 (16.276)
TETRAS CULS CTA (%) [2]: 14.7%
TETRAS PS Item 6: Archimedes Spiral (Left) CTA (%) [2]: 36.5%
TETRAS PS Item 6: Archimedes Spiral (Right) CTA (%) [2]: 9.5%
TETRAS PS Item 7: Handwriting CTA (%) [2]: 4.2%
TETRAS PSTS CTA (%) [2]: 8.1%
TETRAS ULS CTA (%) [2]: 12.8%
TETRAS mADL Mean CFB (SD) [2]: 8.45 (34.208)
TETRAS ADL LS Mean CFB [3]: 3.267
TETRAS CULS LS Mean CFB [3]: 3.156
TETRAS PS Item 6: Archimedes Spiral (Left) LS Mean CFB [3]: 0.384
TETRAS PS Item 6: Archimedes Spiral (Right) LS Mean CFB [3]: 0.353
TETRAS PS Item 7: Handwriting LS Mean CFB [3]: 0.189
TETRAS PSTS LS Mean CFB [3]: 3.422
TETRAS ULS LS Mean CFB [3]: 1.653
TETRAS mADL LS Mean CFB [3]: 4.353
TETRAS ADL Mean CFB (SD) [3]: 18.73 (24.838)
TETRAS CULS CTA (%) [3]: 28.1%
TETRAS PS Item 6: Archimedes Spiral (Left) CTA (%) [3]: 35.8%
TETRAS PS Item 6: Archimedes Spiral (Right) CTA (%) [3]: 33.4%
TETRAS PS Item 7: Handwriting CTA (%) [3]: 19.6%
TETRAS PSTS CTA (%) [3]: 21.8%
TETRAS ULS CTA (%) [3]: 27.2%
TETRAS mADL Mean CFB (SD) [3]: 87.71 (126.281)
TETRAS ADL, Mean [4]: 22.17
TETRAS CULS, Mean [4]: 19.33
TETRAS PS Item 6: Archimedes Spiral (Left), Mean [4]: 1.75
TETRAS PS Item 6: Archimedes Spiral (Right), Mean [4]: 1.75
TETRAS PS Item 7: Handwriting, Mean [4]: 1.75
TETRAS PSTS, Mean [4]: 22.83
TETRAS ULS, Mean [4]: 10.25
TETRAS mADL (TETRAS modified total score), Mean [4]: 12.17
TETRAS ADL score, LS mean difference (Formula (I)—Placebo) (Part B RWD, Day 56): −9.578
TETRAS combined upper limb score, LS mean difference (Formula (I)—Placebo) (Part B RWD, Day 56): −1.896
TETRAS upper limb score, LS mean difference (Formula (I)—Placebo) (Part B RWD, Day 56): −0.253
mADL total score, LS mean difference (Formula (I)—Placebo) (Part B RWD, Day 56): −8.439
TETRAS ADL score, LS mean change from randomization baseline (Day 42) [5]: 0.877
TETRAS combined upper limb score, LS mean change from randomization baseline (Day 42) [5]: 1.525
TETRAS upper limb score, LS mean change from randomization baseline (Day 42) [5]: 0.716
increase in combined upper limb tremor amplitude [5]: 14.7%
